Test [1] deals with AP-1 induced transcriptional activity. The test can be described thus: Cellular Transrepressional Assay (AP-1 luciferase reporter in A549 cells, PMA-activated). In kind it is cell-based. The settings on record: pAP-1-Luc, 10 ng/ml PMA, read-out: AP-1 (EC50, nM) (Cellular Transrepression Assay). On the procedure:
To measure the ability of test molecules to inhibit AP-1 induced transcriptional activity an A549 cell was utilized which was stably transfected with a plasmid containing 7×AP-1 DNA binding sites (pAP-1-Luc plasmid, Stratagene Co. La Jolla, Calif.) followed by the gene for luciferase. Cells were activated with 10 ng/ml of phorbol myristic acid (PMA) plus or minus test molecules for 7 hours. After 7 hours a luciferase reagent was added to measure luciferase enzymatic activity in the cell. After a 10 minute incubation of luciferase reagent with cells, luminescence was measured in a TopCount luminescence counter. Repression of AP-1 activity was calculated as the percentage decrease in the signal induced by PMA alone. Test molecules were analyzed in the concentration range from 0.1 nM to 40 μM. EC50s were determined by using standard curve fitting methods such as Excel fit (Microsoft Co.).
On the technique in general: Reporter assays use an easily measured gene product as a stand-in for the process of interest.

In test [2] the target is T1, human glucocorticoid receptor (Homo sapiens, UniProt P04150).
T1 construct: purified human recombinant full-length glucocorticoid receptor (2 nM); purchased Invitrogen Part # 2893
T1 sequence (P04150 1-777): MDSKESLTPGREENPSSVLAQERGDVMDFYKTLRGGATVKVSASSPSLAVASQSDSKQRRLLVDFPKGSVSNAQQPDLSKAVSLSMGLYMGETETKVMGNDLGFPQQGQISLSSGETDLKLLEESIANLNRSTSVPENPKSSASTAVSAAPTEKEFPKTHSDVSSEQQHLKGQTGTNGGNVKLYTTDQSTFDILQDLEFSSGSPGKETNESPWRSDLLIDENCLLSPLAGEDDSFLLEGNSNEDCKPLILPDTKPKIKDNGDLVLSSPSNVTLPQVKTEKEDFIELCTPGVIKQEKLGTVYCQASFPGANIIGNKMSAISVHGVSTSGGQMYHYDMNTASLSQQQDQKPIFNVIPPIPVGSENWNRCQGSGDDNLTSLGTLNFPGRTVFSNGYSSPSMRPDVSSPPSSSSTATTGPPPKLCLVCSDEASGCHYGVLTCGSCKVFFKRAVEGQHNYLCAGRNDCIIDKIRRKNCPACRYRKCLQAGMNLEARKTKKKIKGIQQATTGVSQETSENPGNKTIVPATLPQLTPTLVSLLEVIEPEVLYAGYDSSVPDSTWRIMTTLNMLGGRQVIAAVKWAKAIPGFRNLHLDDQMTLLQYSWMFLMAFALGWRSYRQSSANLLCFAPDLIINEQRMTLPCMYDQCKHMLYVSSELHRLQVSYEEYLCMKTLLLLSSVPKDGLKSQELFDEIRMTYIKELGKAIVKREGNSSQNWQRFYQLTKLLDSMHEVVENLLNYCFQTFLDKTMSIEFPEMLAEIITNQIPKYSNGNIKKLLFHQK
Put plainly: Glucocorticoid Receptor Binding Assay (I), fluorescence polarization competitor kit (Fluormone GS Red). Conditions: purified human recombinant full-length GR. On the procedure:
In order to assess the affinity of test compounds for the human glucocorticoid receptor, a commercially available kit was used (Glucocorticoid Receptor Competitor Assay Kit, Invitrogen Part # 2893). Briefly, purified human recombinant full-length glucocorticoid receptor (2 nM) was mixed with fluorescently labeled glucocorticoid (1 nM Fluormone GS Red) in the presence or absence of test compound. After two hour incubation at room temperature in the dark, the fluorescence polarization (FP) of the samples was measured. […] Test compounds were analyzed in the concentration range from 8.5E-05 μM to 5 μM.
(In fluorescence polarisation assays a small probe gives low polarisation when free and higher when bound to something large.)

Structures are written as SMILES. Like-named read-outs stand apart in the source and are kept apart here.

The results in this text go back to patent US8198311B2, “Modulators of glucocorticoid receptor, AP-1, and/or NF-κB activity and use thereof” (Bristol-Myers Squibb Company, priority 2006, dated 2012).

What is called EC50 is the concentration at which the effect is half-maximal. What is called Ki is a measure of affinity in units of concentration, obtained from inhibition or displacement.

`CC(C)CC(c1ccc2c(cnn2-c2ccc(F)cc2)c1)C(C)(C)CNC(=O)[C@H](O)C(C)(C)C` (single isomer, unassigned) [Example 69 diastA, N-(3-(1-(4-fluorophenyl)-1H-indazol-5-yl)-2,2,5-trimethylhexyl)-2-hydroxy-3,3-dimethylbutanamide]: in test [1] (Homo sapiens, A549, 7 h), the EC50 was more than 10000 nM. In addition, the Ki in test [2] is 3.7 nM.
For `CC(C)CC(c1ccc2c(cnn2-c2ccc(F)cc2)c1)C(C)(C)CNC(=O)[C@@H](O)C(C)(C)C` (single isomer, unassigned) [Example 69 diastB, N-(3-(1-(4-fluorophenyl)-1H-indazol-5-yl)-2,2,5-trimethylhexyl)-2-hydroxy-3,3-dimethylbutanamide] the same measures were more than 10000 nM and 3.4 nM.
Consider `CC(CNC(=O)CC(F)(F)F)C(c1ccccc1)c1ccc2c(cnn2-c2ccc(F)cc2)c1` (single isomer, unassigned) [Example 90A, 3,3,3-trifluoro-N-(3-(1-(4-fluorophenyl)-1H-indazol-5-yl)-2-methyl-3-phenylpropyl)propanamide], for which, in test [1] (7 hours), the concentration for a half-maximal effect (EC50) came out at 52 nM. In addition, the Ki in test [2] turned out to be 2.3 nM.
For `CC(CNC(=O)CC(F)(F)F)C(c1ccccc1)c1ccc2c(cnn2-c2ccc(F)cc2)c1` (single isomer, unassigned) [Example 90B, 3,3,3-trifluoro-N-(3-(1-(4-fluorophenyl)-1H-indazol-5-yl)-2-methyl-3-phenylpropyl)propanamide] the same measures were 176 nM and 21 nM.
As for `CC(CNC(=O)CC(F)(F)F)C(c1ccccc1)c1ccc2c(cnn2-c2ccc(F)cc2)c1` (single isomer, unassigned) [Example 90C, 3,3,3-trifluoro-N-(3-(1-(4-fluorophenyl)-1H-indazol-5-yl)-2-methyl-3-phenylpropyl)propanamide], the EC50 in test [1] (7 hours) came to 7.4 nM. For the same compound, the Ki in test [2] came out at 2.4 nM.
For `CC(CNS(=O)(=O)CC(F)(F)F)C(c1ccccc1)c1ccc2c(cnn2-c2ccc(F)cc2)c1` (single isomer, unassigned) [Example 91A, 2,2,2-trifluoro-N-(3-(1-(4-fluorophenyl)-1H-indazol-5-yl)-2-methyl-3-phenylpropyl)ethanesulfonamide] the same measures were 5.7 nM and 2.1 nM.
For `CC(CNS(=O)(=O)CC(F)(F)F)C(c1ccccc1)c1ccc2c(cnn2-c2ccc(F)cc2)c1` (single isomer, unassigned) [Example 91B, 2,2,2-trifluoro-N-(3-(1-(4-fluorophenyl)-1H-indazol-5-yl)-2-methyl-3-phenylpropyl)ethanesulfonamide] the same measures were 201 nM and 15 nM.
As to `CC(CNS(=O)(=O)CC(F)(F)F)C(c1ccccc1)c1ccc2c(cnn2-c2ccc(F)cc2)c1` (single isomer, unassigned) [Example 91C, 2,2,2-trifluoro-N-(3-(1-(4-fluorophenyl)-1H-indazol-5-yl)-2-methyl-3-phenylpropyl)ethanesulfonamide], the EC50 in test [1] (7 hours) was determined as 83 nM. The Ki in test [2] amounted to 2.8 nM.
For `CC(CNS(=O)(=O)CC(F)(F)F)C(c1ccccc1)c1ccc2c(cnn2-c2ccc(F)cc2)c1` (single isomer, unassigned) [Example 91D, 2,2,2-trifluoro-N-(3-(1-(4-fluorophenyl)-1H-indazol-5-yl)-2-methyl-3-phenylpropyl)ethanesulfonamide] the same measures were 2500 nM and 74 nM.
For `CC(CNC(=O)NC(C)(C)C)C(c1ccccc1)c1ccc2c(cnn2-c2ccc(F)cc2)c1` (single isomer, unassigned) [Example 97A, 1-tert-butyl-3-(3-(1-(4-fluorophenyl)-1H-indazol-5-yl)-2-methyl-3-phenylpropyl)urea] the same measures were 71 nM and 4 nM.
`CC(CNC(=O)NC(C)(C)C)C(c1ccccc1)c1ccc2c(cnn2-c2ccc(F)cc2)c1` (single isomer, unassigned) [Example 97B, 1-tert-butyl-3-(3-(1-(4-fluorophenyl)-1H-indazol-5-yl)-2-methyl-3-phenylpropyl)urea]: the EC50 in test [1] (7 hours) amounted to 136 nM. In addition, the Ki in test [2] amounted to 43 nM.
For `CC(CNC(=O)NC(C)(C)C)C(c1ccccc1)c1ccc2c(cnn2-c2ccc(F)cc2)c1` (single isomer, unassigned) [Example 97C, 1-tert-butyl-3-(3-(1-(4-fluorophenyl)-1H-indazol-5-yl)-2-methyl-3-phenylpropyl)urea] the same measures were 158 nM and 3.5 nM.
As to `CC(C)(CNC(=O)C(F)(F)F)[C@@H](c1ccccc1)c1ccc2c(cnn2-c2ccc(F)cc2)c1` [(S)-16, (S)-2,2,2-trifluoro-N-(3-(1-(4-fluorophenyl)-1H-indazol-5-yl)-2,2-dimethyl-3-phenylpropyl)acetamide], the EC50 in test [1] (Homo sapiens, A549, 7 h) came out at 2270 nM.
As to `CC(C)CCC(=O)NCC(C)(C)[C@@H](c1ccccc1)c1ccc2c(cnn2-c2ccc(F)cc2)c1` [Example 2, (S)-N-(3-(1-(4-fluorophenyl)-1H-indazol-5-yl)-2,2-dimethyl-3-phenylpropyl)-4-methylpentanamide], the EC50 in test [1] (Homo sapiens, A549, 7 h) was 508 nM.
Take `CC(C)(CNC(=O)Cc1ccccc1)[C@@H](c1ccccc1)c1ccc2c(cnn2-c2ccc(F)cc2)c1` [Example 3, (S)-N-(3-(1-(4-fluorophenyl)-1H-indazol-5-yl)-2,2-dimethyl-3-phenylpropyl)-2-phenylacetamide]: the EC50 in test [1] (Homo sapiens, A549, 7 h) amounted to 2520 nM.
On the same count and under the same terms, for `CC(C)C(=O)NCC(C)(C)[C@@H](c1ccccc1)c1ccc2c(cnn2-c2ccc(F)cc2)c1` [Example 4, (S)-N-(3-(1-(4-fluorophenyl)-1H-indazol-5-yl)-2,2-dimethyl-3-phenylpropyl)isobutyramide] the value was 1280 nM; for `CC(C)(C)C(=O)NCC(C)(C)[C@@H](c1ccccc1)c1ccc2c(cnn2-c2ccc(F)cc2)c1` [Example 5, (S)-N-(3-(1-(4-fluorophenyl)-1H-indazol-5-yl)-2,2-dimethyl-3-phenylpropyl)pivalamide], 1060 nM.
For the compound `CC(C)(CNS(=O)(=O)C1CC1)[C@@H](c1ccccc1)c1ccc2c(cnn2-c2ccc(F)cc2)c1` [Example 12, (S)-N-(3-(1-(4-fluorophenyl)-1H-indazol-5-yl)-2,2-dimethyl-3-phenylpropyl)cyclopropanesulfonamide], the EC50 in test [1] (Homo sapiens, A549, 7 h) came out at 211 nM.
Same read-out and setting: in the case of `CC(C)(CNS(=O)(=O)CS(C)(=O)=O)[C@@H](c1ccccc1)c1ccc2c(cnn2-c2ccc(F)cc2)c1` [Example 14, (S)-N-(3-(1-(4-fluorophenyl)-1H-indazol-5-yl)-2,2-dimethyl-3-phenylpropyl)-1-(methylsulfonyl)methanesulfonamide] it was 1860 nM.
On the same count and under the same terms, in the case of `CN(C)S(=O)(=O)NCC(C)(C)[C@@H](c1ccccc1)c1ccc2c(cnn2-c2ccc(F)cc2)c1` [Example 15, (S)-N-dimethyl-N′-(3-(1-(4-fluorophenyl)-1H-indazol-5-yl)-2,2-dimethyl-3-phenylpropyl)propane-1-sulfamide] it was 2780 nM.
Same read-out and setting: in the case of `CC(C)(CNC(=O)c1cccs1)[C@H](c1ccccc1)c1ccc2c(cnn2-c2ccc(F)cc2)c1` [Example 20, (R)-N-(3-(1-(4-fluorophenyl)-1H-indazol-5-yl)-2,2-dimethyl-3-phenylpropyl)thiophene-2-carboxamide] it was 573 nM.
With `C#CC(C)(C)NC(=O)NCC(C)(C)C(CC(C)C)c1ccc2c(cnn2-c2ccc(F)cc2)c1` (centres unmarked) [Example 72, 1-(3-(1-(4-fluorophenyl)-1H-indazol-5-yl)-2,2,5-trimethylhexyl)-3-(2-methylbut-3-yn-2-yl)urea], the Ki in test [2] is 55 nM.
Same read-out and setting: in the case of `CC(C)(CNC(=O)CC(F)(F)F)C1(c2ccc3c(cnn3-c3ccc(F)cc3)c2)CCOCC1` [Example 113, 3,3,3-Trifluoro-N-(2-(4-(1-(4-fluorophenyl)-1H-indazol-5-yl)tetrahydro-2H-pyran-4-yl)-2-methylpropyl)propanamide] it was 22 nM.
